Measurements published in patent publication US11066409B2, “Bicyclic nitrogen-containing heterocyclic derivatives and pharmaceutical composition comprising the same” (Shionogi & Co., Ltd., priority 2016, dated 2021).

What follows are compounds tested against human P2X7 receptor (Homo sapiens (Human), UniProt Q99572, R270H) (assay: Evaluation of a human P2X7 receptor inhibitory activity (Yo-Pro uptake, BzATP stimulation, FLIPR TETRA)). Details: 1321N1 cells stably expressing human P2X7 receptor, Yo-Pro fluorescence, class symbols.
Sequence of human P2X7 receptor (Q99572 whole entry R270H): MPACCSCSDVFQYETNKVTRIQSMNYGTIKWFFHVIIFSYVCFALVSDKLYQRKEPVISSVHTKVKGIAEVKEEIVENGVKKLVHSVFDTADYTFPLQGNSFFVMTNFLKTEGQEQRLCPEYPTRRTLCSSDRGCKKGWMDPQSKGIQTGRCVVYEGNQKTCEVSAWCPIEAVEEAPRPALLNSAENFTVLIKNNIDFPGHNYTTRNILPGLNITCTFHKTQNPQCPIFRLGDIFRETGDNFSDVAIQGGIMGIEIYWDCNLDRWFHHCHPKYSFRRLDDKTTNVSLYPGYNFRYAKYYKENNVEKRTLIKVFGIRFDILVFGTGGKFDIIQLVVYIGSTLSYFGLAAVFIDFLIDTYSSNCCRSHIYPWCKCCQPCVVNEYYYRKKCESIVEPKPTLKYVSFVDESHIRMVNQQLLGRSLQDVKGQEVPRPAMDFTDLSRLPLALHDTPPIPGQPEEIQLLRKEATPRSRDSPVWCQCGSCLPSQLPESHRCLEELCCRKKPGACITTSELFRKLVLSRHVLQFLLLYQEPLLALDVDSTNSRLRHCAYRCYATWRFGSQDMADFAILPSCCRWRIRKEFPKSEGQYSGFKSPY
Type: cell-based
Outline: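 1321N1 cells stably expressing human P2X7 (T606C/G952A SNP variant) in HBSS/HEPES pH 7.4–7.5 were loaded with Yo-Pro and stimulated with BzATP on FLIPR TETRA. Compound was added 8 min later and fluorescence followed for 20 min. Inhibition scaled between no-compound (0%) and reference compound (100%); IC50 by logistic fit, reported in bins A–D.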
With `Cc1ccc(O[C@H]2C[C@@H](CO)C2)cc1NC1=NC(=O)N(C)C2=NCC(c3cc(F)c(F)c(F)c3)N12` (stereo partly drawn) [Compound I-0185] the IC50 was 10 to 100 nM.
With `Cc1ccc(O[C@H]2C[C@H](CO)C2)cc1NC1=NC(=O)N(C)C2=NCC(c3cc(F)c(F)c(F)c3)N12` (stereo partly drawn) [Compound I-0186] the IC50 was 10 to 100 nM.
For `Cc1cc2cnn(CCO)c2cc1NC1=NC(=O)N(C)C2=NCC(c3cc(F)c(F)c(F)c3)N12` (stereo not drawn) [Compound I-0187], the IC50 was 10 to 100 nM.
In the case of `Cc1ccc(C#N)cc1NC1=NC(=O)N(CCO)C2=NCC(c3cc(F)c(F)c(F)c3)N12` (stereo not drawn) [Compound I-0189], the IC50 is reported as 10 to 100 nM.
`Cc1ccc(OC[C@H]2C[C@H](O)C2)cc1NC1=NC(=O)N(C)C2=NCC(c3cc(F)c(F)c(F)c3)N12` (stereo partly drawn) [Compound I-0190] showed an IC50 of 10 to 100 nM.
`Cc1ccc(C=O)cc1NC1=NC(=O)N(C)C2=NCC(c3cc(F)c(F)c(F)c3)N12` (stereo not drawn) [Compound I-0191] showed an IC50 of 10 to 100 nM.
With `Cc1ccc(Oc2ccccn2)cc1NC1=NC(=O)N(C)C2=NCC(c3cc(F)c(F)c(F)c3)N12` (stereo not drawn) [Compound I-0193] the IC50 was 10 to 100 nM.
With `Cc1ccc(CCO)cc1NC1=NC(=O)N(C)C2=NCC(c3cc(F)c(F)c(F)c3)N12` (stereo not drawn) [Compound I-0194] the IC50 was 10 to 100 nM.
In the case of `Cc1ccc(CO)cc1NC1=NC(=O)N(C)C2=NCC(c3cc(F)nc(F)c3)N12` (stereo not drawn) [Compound I-0195], the IC50 is reported as 10 to 100 nM.
For `CN1C(=O)N=C(NCc2ccccc2F)N2C1=NCC2c1cc(F)c(F)c(F)c1` (stereo not drawn) [Compound I-0196], the IC50 was 10 to 100 nM.
`CN1C(=O)N=C(NCc2cccc(F)c2)N2C1=NCC2c1cc(F)c(F)c(F)c1` (stereo not drawn) [Compound I-0197] was tested, and the IC50 was 10 to 100 nM.
Compound `CN1C(=O)N=C(NCc2ccc(F)cc2)N2C1=NCC2c1cc(F)c(F)c(F)c1` (stereo not drawn) [Compound I-0198] has an IC50 of 10 to 100 nM.
Work on `Cc1ccc(OCCS(C)(=O)=O)cc1NC1=NC(=O)N(C)C2=NCC(c3cc(F)c(F)c(F)c3)N12` (stereo not drawn) [Compound I-0199] yielded an IC50 of 10 to 100 nM.
For `Cc1ccc(OCC#N)cc1NC1=NC(=O)N(C)C2=NCC(c3cc(F)c(F)c(F)c3)N12` (stereo not drawn) [Compound I-0200], the IC50 was 10 to 100 nM.
With `COCCc1ccc(C)c(NC2=NC(=O)N(C)C3=NCC(c4cc(F)c(F)c(F)c4)N23)c1` (stereo not drawn) [Compound I-0202] the IC50 was 10 to 100 nM.
For `COCC(F)(F)Oc1ccc(C)c(NC2=NC(=O)N(C)C3=NCC(c4cc(F)c(F)c(F)c4)N23)c1` (stereo not drawn) [Compound I-0203], the IC50 was 10 to 100 nM.
In the case of `Cc1ccc(OC(F)(F)CO)cc1NC1=NC(=O)N(C)C2=NCC(c3cc(F)c(F)c(F)c3)N12` (stereo not drawn) [Compound I-0204], the IC50 is reported as 10 to 100 nM.
Compound `COCC(F)(F)c1ccc(C)c(NC2=NC(=O)N(C)C3=NCC(c4cc(F)c(F)c(F)c4)N23)c1` (stereo not drawn) [Compound I-0205] has an IC50 of 10 to 100 nM.
In the case of `Cc1ccc(C(F)(F)CO)cc1NC1=NC(=O)N(C)C2=NCC(c3cc(F)c(F)c(F)c3)N12` (stereo not drawn) [Compound I-0206], the IC50 is reported as 10 to 100 nM.
`COc1ccc([C@@H](C)NC2=NC(=O)N(C)C3=NCC(c4cc(F)c(F)c(F)c4)N23)cc1` (stereo partly drawn) [Compound I-0207] gave an IC50 of 100 to 500 nM.
`Cc1cc(C#N)ccc1NC1=NC(=O)N(C)C2=NCC(c3cc(F)c(F)c(F)c3)N12` (stereo not drawn) [Compound I-0208] showed an IC50 of 10 to 100 nM.
`COc1cc(NC2=NC(=O)N(C)C3=NCC(c4cc(F)c(F)c(F)c4)N23)c(C)cc1C#N` (stereo not drawn) [Compound I-0209] was tested, and the IC50 was 10 to 100 nM.
`CN1C(=O)N=C(Nc2cc(C#N)ccc2F)N2C1=NCC2c1cc(F)c(F)c(F)c1` (stereo not drawn) [Compound I-0210] showed an IC50 of 10 to 100 nM.
For `Cc1cc(F)c(C#N)cc1NC1=NC(=O)N(C)C2=NCC(c3cc(F)c(F)c(F)c3)N12` (stereo not drawn) [Compound I-0211], the IC50 was 10 to 100 nM.
For `Cc1c(F)cc(C#N)cc1NC1=NC(=O)N(C)C2=NCC(c3cc(F)c(F)c(F)c3)N12` (stereo not drawn) [Compound I-0212], the IC50 was 10 to 100 nM.
In the case of `Cc1ccc(C2=NCCO2)cc1NC1=NC(=O)N(C)C2=NCC(c3cc(F)c(F)c(F)c3)N12` (stereo not drawn) [Compound I-0213], the IC50 is reported as 10 to 100 nM.
`Cc1cc(F)c(C2=NCCO2)cc1NC1=NC(=O)N(C)C2=NCC(c3cc(F)c(F)c(F)c3)N12` (stereo not drawn) [Compound I-0214] was tested, and the IC50 was 10 to 100 nM.
